From patent US20240043427A1 (Gilead Sciences, Inc., priority 2020, published 2024) come the findings set out here.

The experiment deals with CD73 (Homo sapiens (Human), UniProt P21589). Format: biochemical. As to conditions: 1 mM NaH2PO4 in enzyme buffer, CD73 0.3 nM, AMP 15 uM.
CD73, sequence (P21589 27-574): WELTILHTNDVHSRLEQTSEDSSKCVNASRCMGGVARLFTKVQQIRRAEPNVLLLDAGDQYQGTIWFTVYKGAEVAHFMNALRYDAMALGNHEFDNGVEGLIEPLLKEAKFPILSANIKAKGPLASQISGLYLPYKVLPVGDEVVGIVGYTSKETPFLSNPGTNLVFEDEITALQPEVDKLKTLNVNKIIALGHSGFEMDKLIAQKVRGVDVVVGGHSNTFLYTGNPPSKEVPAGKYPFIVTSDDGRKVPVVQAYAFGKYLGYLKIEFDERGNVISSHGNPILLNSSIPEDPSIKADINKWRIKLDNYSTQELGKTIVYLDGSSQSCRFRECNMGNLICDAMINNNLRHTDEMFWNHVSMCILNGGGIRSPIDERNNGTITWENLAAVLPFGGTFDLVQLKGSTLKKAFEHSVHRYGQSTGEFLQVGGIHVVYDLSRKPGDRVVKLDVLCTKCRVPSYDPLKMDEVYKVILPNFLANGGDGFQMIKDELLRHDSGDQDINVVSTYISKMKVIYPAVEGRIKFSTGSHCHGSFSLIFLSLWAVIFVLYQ
In general, IC50 refers to the concentration at which inhibition is half-maximal. The compound `O=C(c1ccc([C@H]2C[C@@H]2c2cc(-c3c[nH]c(=O)[nH]c3=O)nn3ccnc23)cc1)N1CC(C(F)(F)F)C1` (racemic) [Example 291, 5-(8-((1S,2S)-2-(4-(3-(trifluoromethyl)azetidine-1-carbonyl)phenyl)cyclopropyl)imidazo[1,2-b]pyridazin-6-yl)pyrimidine-2,4(1H,3H)-dione] had an IC50 of 3.25 nM. `O=c1[nH]cc(-c2cc([C@H]3C[C@@H]3c3ccc4ncsc4c3)c3nc(C4CC4)cn3n2)c(=O)[nH]1` (racemic) [Example 143, 5-(8-((1S,2S)-2-(benzo[d]thiazol-6-yl)cyclopropyl)-2-cyclopropylimidazo[1,2-b]pyridazin-6-yl)pyrimidine-2,4(1H,3H)-dione] gave a half-inhibitory concentration (IC50) of 5.69 nM. As to `Cc1nc2cc([C@H]3C[C@@H]3c3cc(-c4c[nH]c(=O)[nH]c4=O)nn4ccnc34)ccc2s1` (racemic) [Example 321, 5-(8-((1S,2S)-2-(2-methylbenzo[d]thiazol-5-yl)cyclopropyl)imidazo[1,2-b]pyridazin-6-yl)pyrimidine-2,4(1H,3H)-dione], the 50% inhibitory concentration (IC50) is 1.12 nM. This IC50 lies about 5.1-fold lower than the previous one. `O=c1[nH]cc(-c2cc([C@H]3C[C@@H]3c3cncnc3)c3ncc(F)n3n2)c(=O)[nH]1` (racemic) [Example 179, 5-(3-fluoro-8-((1S,2S)-2-(pyrimidin-5-yl)cyclopropyl)imidazo[1,2-b]pyridazin-6-yl)pyrimidine-2,4(1H,3H)-dione] came in with a half-inhibitory concentration (IC50) of 16.7 nM.

`N#Cc1cccc([C@H]2C[C@@H]2c2cc(-c3c[nH]c(=O)[nH]c3=O)nn3ccnc23)c1F` (racemic) [Example 408, 3-((1S,2S)-2-(6-(2,4-dioxo-1,2,3,4-tetrahydropyrimidin-5-yl)imidazo[1,2-b]pyridazin-8-yl)cyclopropyl)-2-fluorobenzonitrile]: half-maximal inhibition (IC50) was put at 2.35 nM. This IC50 lies about 7.1-fold lower than the previous one. `O=c1[nH]cc(-c2cc([C@H]3C[C@@H]3c3ccncc3)c3ncc(F)n3n2)c(=O)[nH]1` (racemic) [Example 181, 5-(3-fluoro-8-((1S,2S)-2-(pyridin-4-yl)cyclopropyl)imidazo[1,2-b]pyridazin-6-yl)pyrimidine-2,4(1H,3H)-dione]: the IC50 stood at 2.42 nM. Compound `CC1(C)CCN(C(=O)c2cccc([C@H]3C[C@@H]3c3cc(-c4c[nH]c(=O)[nH]c4=O)nn4ccnc34)c2)C1` (racemic) [Example 308, 5-(8-((1S,2S)-2-(3-(3,3-dimethylpyrrolidine-1-carbonyl)phenyl)cyclopropyl)imidazo[1,2-b]pyridazin-6-yl)pyrimidine-2,4(1H,3H)-dione] had a 50% inhibitory concentration (IC50) of 5.47 nM. Take `O=c1[nH]cc(-c2cc([C@H]3C[C@@H]3c3cccc4cnccc34)c3nccn3n2)c(=O)[nH]1` (racemic) [Example 168, 5-(8-((1S,2S)-2-(isoquinolin-5-yl)cyclopropyl)imidazo[1,2-b]pyridazin-6-yl)pyrimidine-2,4(1H,3H)-dione]: the IC50 stood at 72.5 nM. `O=C(c1ccc([C@H]2C[C@@H]2c2cc(-c3c[nH]c(=O)[nH]c3=O)nn3c(F)cnc23)cc1)N1CC(F)(F)C1` [Example 313, 5-(8-((1S,2S)-2-(4-(3,3-difluoroazetidine-1-carbonyl)phenyl)cyclopropyl)-3-fluoroimidazo[1,2-b]pyridazin-6-yl)pyrimidine-2,4(1H,3H)-dione]: half-maximal inhibition (IC50) was put at 2.35 nM. As for `Cn1ncc2ccc([C@H]3C[C@@H]3c3cc(-c4c[nH]c(=O)[nH]c4=O)nn4ccnc34)cc21` (racemic) [Example 326, 5-(8-((1S,2S)-2-(1-methyl-1H-indazol-6-yl)cyclopropyl)imidazo[1,2-b]pyridazin-6-yl)pyrimidine-2,4(1H,3H)-dione], the figure is 0.91 nM. Then `O=c1[nH]cc(-c2cc([C@H]3C[C@@H]3c3ccc4c(F)nn(CC(F)(F)F)c4c3)c3ncc(Cl)n3n2)c(=O)[nH]1` (racemic) [Example 213, 5-[3-chloro-8-[(1S,2S)-2-[3-fluoro-1-(2,2,2-trifluoroethyl)indazol-6-yl]cyclopropyl]imidazo[1,2-b]pyridazin-6-yl]-1H-pyrimidine-2,4-dione], with 0.92 nM; and `O=c1[nH]cc(-c2cc([C@H]3C[C@@H]3c3ccn(C(F)F)n3)c3nccn3n2)c(=O)[nH]1` (racemic) [Example 369, 5-(8-((1S,2S)-2-(1-(difluoromethyl)-1H-pyrazol-3-yl)cyclopropyl)imidazo[1,2-b]pyridazin-6-yl)pyrimidine-2,4(1H,3H)-dione], with 21.5 nM; and `O=C(c1cccc([C@H]2C[C@@H]2c2cc(-c3c[nH]c(=O)[nH]c3=O)nn3ccnc23)c1)N1CC(C(F)(F)F)C1` (racemic) [Example 296, 5-(8-((1S,2S)-2-(3-(3-(trifluoromethyl)azetidine-1-carbonyl)phenyl)cyclopropyl)imidazo[1,2-b]pyridazin-6-yl)pyrimidine-2,4(1H,3H)-dione], with 2.14 nM. As for `CC1(C)CN(C(=O)c2cccc([C@H]3C[C@@H]3c3cc(-c4c[nH]c(=O)[nH]c4=O)nn4ccnc34)c2)C1` (racemic) [Example 298, 5-(8-((1S,2S)-2-(3-(3,3-dimethylazetidine-1-carbonyl)phenyl)cyclopropyl)imidazo[1,2-b]pyridazin-6-yl)pyrimidine-2,4(1H,3H)-dione], the figure is 3.78 nM.

In turn, `O=c1[nH]cc(-c2cc([C@H]3C[C@@H]3c3cccnc3)c3ncc(F)n3n2)c(=O)[nH]1` (racemic) [Example 180, 5-(3-fluoro-8-((1S,2S)-2-(pyridin-3-yl)cyclopropyl)imidazo[1,2-b]pyridazin-6-yl)pyrimidine-2,4(1H,3H)-dione] gave a half-inhibitory concentration (IC50) of 2.2 nM. Turning to `O=c1[nH]cc(-c2cc([C@H]3C[C@@H]3c3ccnc4ccccc34)c3nccn3n2)c(=O)[nH]1` (racemic) [Example 167, 5-(8-((1S,2S)-2-(quinolin-4-yl)cyclopropyl)imidazo[1,2-b]pyridazin-6-yl)pyrimidine-2,4(1H,3H)-dione], the IC50 worked out at 33 nM. With `N#Cc1ccc([C@H]2C[C@@H]2c2cc(-c3c[nH]c(=O)[nH]c3=O)nn3ccnc23)cc1OC(F)(F)F` (racemic) [Example 413, 4-((1S,2S)-2-(6-(2,4-dioxo-1,2,3,4-tetrahydropyrimidin-5-yl)imidazo[1,2-b]pyridazin-8-yl)cyclopropyl)-2-(trifluoromethoxy)benzonitrile], inhibition was half-maximal at 3.01 nM (IC50). This IC50 lies about 11-fold lower than the previous one. Take `O=c1[nH]cc(-c2cc([C@H]3C[C@@H]3c3ccc4ncccc4c3)c3nccn3n2)c(=O)[nH]1` (racemic) [Example 157, 5-(8-((1S,2S)-2-(quinolin-6-yl)cyclopropyl)imidazo[1,2-b]pyridazin-6-yl)pyrimidine-2,4(1H,3H)-dione]: the half-maximal inhibitory concentration (IC50) was 1.06 nM. Then `O=C(Nc1ccccc1)[C@H]1C[C@@H]1c1cc(-c2c[nH]c(=O)[nH]c2=O)nn2ccnc12` (racemic) [Example 462, (1S,2S)-2-(6-(2,4-dioxo-1,2,3,4-tetrahydropyrimidin-5-yl)imidazo[1,2-b]pyridazin-8-yl)-N-phenylcyclopropane-1-carboxamide], with 9.39 nM; and `O=c1[nH]cc(-c2cc([C@H]3C[C@@H]3c3ccc(F)c(F)c3F)c3nccn3n2)c(=O)[nH]1` (racemic) [Example 464, 5-(8-((1S,2S)-2-(2,3,4-trifluorophenyl)cyclopropyl)imidazo[1,2-b]pyridazin-6-yl)pyrimidine-2,4(1H,3H)-dione], with 1.47 nM.
